The record followed here is PMC12903969, “Discovery of a Novel and Potent Kir4.1 Inhibitor as a Safe and Rapid‐Onset Antidepressant Agent in Mice” (Advanced Science, 2025).

Data set [1] concerns primary cortical astrocytes (native Kir4.1 channels). Kind of data set: Patch clamp of primary cultured WT astrocytes (native Kir4.1). The format is cell-based, mouse. To be noted: JX3212 3 µM; BaCl2 100 µM. The method, then: Astrocytes were isolated and cultured as previously described.^[ [16] ^] Briefly, the cortices from P1‐P4 mouse pups were dissected and incubated for 25 min in Hank's Balanced Salt Solution (22.5 ml) with 2.5% trypsin (2.5 ml) at 37 °C. Cells were dissociated in cultured medium (DMEM/F12 supplemented with 10% fetal bovine serum and 1% penicillin and streptomycin) and filtered with a 70‐µm cell strainer. Cell suspensions were cultured in PDL‐pretreated 75‐cm^2 flasks for the initial seven days, with half of the medium replaced every 2 days. Subsequently, the cultures were shaken at 220 rpm for 6 h at 37 °C to remove microglia and oligodendrocytes from the astrocyte layers. The astrocytes were harvested, reseeded in two new flasks, and cultured in an incubator for 14 days. For Kir4.1 deletion in cell cultures, 4‐OH tamoxifen (final concentration: 1 µM, Felixbio) was added into Kir4.1^flox/flox: Aldh1l1‐Cre/ERT2 cortical cultures at DIV 2 and DIV 4, respectively, and completely removed at DIV7 when astrocytes were reseeded in fresh culture medium.
Whole‐cell patch‐clamp recordings were obtained either in transiently transfected CHO‐K1 cells or in primary cultured astrocytes at room temperature using standard patch‐clamp techniques with an Axopatch‐700B amplifier (Axon Instruments). The signals were filtered at 2 kHz and sampled at 20 kHz using the Digidata 1440A interface (Axon Instruments). The resistance of borosilicate glass pipettes was typically 2–4 MΩ when filled with the internal solution. Drug application was facilitated using a BPS perfusion system (ALA Scientific Instruments). Macroscopic currents generated by expressed potassium channels were recorded under the voltage‐clamp conditions with an internal pipette solution composed of (in mM): 140 KCl, 5 NaCl, 1 CaCl2, 1 MgCl2, 10 HEPES, and 10 EGTA, pH 7.2 adjusted with KOH. The external solution contained (in mM): 140 NaCl, 5 KCl, 2 CaCl2, 1 MgCl2, 10 glucose, and 10 HEPES, pH 7.4 adjusted with NaOH. Currents were elicited with a hyperpolarized voltage at −120 mV from the holding potential of −80 mV, followed by a ramp voltage depolarizing to +50 mV. Astrocytic resting membrane potentials were recorded under current‐clamp conditions (I = 0 pA) using standard internal and external solutions, determined immediately after achieving whole‐cell mode.

The subject of data set [2] is MDA-MB-468 breast cancer cells. Kind of data set: Cytotoxicity test (CCK-8). The format is cell-based. To be noted: read-out: IC50 ± SD (μM) for MDA-MB-468 Inhibition. An outline of the steps:
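Cells seeded at 12,000/well in L15 for 24 h, then exposed 48 h to compounds at 0.41-100.00 µM (DMSO <0.4%). Viability by 10% CCK-8, 2 h at 37 °C, absorbance 450 nm, expressed as percent of control.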

The target in a further data set is T1, Kir4.1 (Homo sapiens, UniProt P78508).
T1 construct: host or cells: CHO-K1
T1 sequence (P78508 1-379): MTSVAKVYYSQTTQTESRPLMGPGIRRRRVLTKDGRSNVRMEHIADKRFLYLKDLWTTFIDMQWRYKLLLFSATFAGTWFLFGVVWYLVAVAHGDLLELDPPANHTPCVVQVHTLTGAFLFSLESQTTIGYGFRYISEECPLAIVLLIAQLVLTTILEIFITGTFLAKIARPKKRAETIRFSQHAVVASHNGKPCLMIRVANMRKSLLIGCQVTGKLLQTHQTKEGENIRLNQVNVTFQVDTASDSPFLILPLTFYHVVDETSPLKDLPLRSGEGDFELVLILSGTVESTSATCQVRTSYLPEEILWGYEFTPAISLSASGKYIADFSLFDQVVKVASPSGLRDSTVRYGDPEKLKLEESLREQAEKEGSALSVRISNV
Kind of data set: Whole-cell patch clamp, Kir4.1 currents in transfected CHO-K1 cells. Type of data set: cell-based. To be noted: for inhibition at 1 µM: CHO-K1, 1 μM; for inhibition at 10 µM: CHO-K1, 10 μM. Summed up:
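Transiently transfected CHO-K1 cells (with EGFP), whole-cell voltage clamp at room temperature; pipette 140 mM KCl pH 7.2, bath 140 mM NaCl/5 mM KCl pH 7.4. Currents evoked from −80 mV holding by a step to −120 mV then ramp to +50 mV; compounds applied by perfusion.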

Data set [3] deals with C57BL/6J mice. Kind of data set: Open field test (OFT) after chronic administration. Particulars: chronic 10 mg kg−1 per day. The format is in vivo. The method, then: This test was used to assess anxiety‐related behaviors in the mice. C57BL/6J mice were individually habituated to a 40 × 40 × 40 cm^3 open field arena under dim light for […]. Locomotor activity during the final 5 min was digitally recorded (30 fps) and analyzed using Tracking Master (Future Life Science (Shanghai) Co., Ltd., Shanghai, China). The primary endpoints included the total ambulatory distance (cm) and center‐zone exploration frequency (20 × 20 cm^2 central area).

The subject of data set [4] is mice. The data set can be described thus: Rotarod test (RT). The format is in vivo. Particulars: chronic 10 mg kg−1 per day. Here is the method:
The rotarod test was designed to evaluate the coordination and motor performance of rodents. The speed and time were set for the rod rotators. All experimental mice were allowed to adapt to a lower speed (5 rpm). For the formal test, the mice were placed on a rod spinning at 20 rpm, and the duration that the mice were able to hold on the rod at this speed was recorded. The maximum test duration was 20 min.

The test system of data set [5] is mice. Kind of data set: Y-maze. To be noted: chronic 10 mg kg−1 per day. Type of data set: in vivo. The method, then:
This test was designed to evaluate spatial working memory. Briefly, mice were individually placed in a symmetrical Y‐maze and allowed to explore for 8 min. Entries were counted only when both hind paws crossed the arm threshold. Correct spatial alternation was defined as an entry into all three arms in an uninterrupted sequence (e.g., ABC, BCA or CAB each representing one alternation). The alternation percentage was derived as: [correct alternations/(total entries–2)] × 100%. After each session, the walls and floor of the maze were wiped with 75% ethanol and allowed to dry before the next animal was tested.

The subject of data set [6] is C57BL/6J mice. Kind of data set: Novelty-suppressed feeding test (NSFT). The format is in vivo. Here is the method:
The mice were individually housed in new cages and deprived of food for 24 h. The testing equipment was a brightly lit plastic box measuring 40 × 40 × 30 cm^3 with a light intensity of 1100–1200 lux. Each mouse was positioned in a corner of the device with one food pellet located at the center. The latency to start chewing food was recorded within 5 min. Immediately thereafter, the mice were placed back in their home cage with pre‐measured food, and the amount consumed in the next 5 min was used as a baseline to account for appetite changes that might affect the outcome.

Data set [7] concerns mice. Kind of data set: 21-day chronic administration: body weight, organ weight, serum biochemistry.
The test system of data set [8] is mice. The data set can be described thus: Shuttle box test (SBT). The format is in vivo. Here is the method:
This test was designed to measure learning and memory function in rodents. The shuttle box consists of two compartments connected by a freely passable gate. The mice were allowed to explore the test chamber freely for 5 min before the test to eliminate exploratory reflexes. Each mouse was placed in one compartment of the shuttle box. The conditioning protocol began with a 5‐s conditioned stimulus presentation of light (200 lux) and auditory tone (100 dB, 1000 Hz), followed immediately by a 3‐s footshock (300 µA) unconditioned stimulus. Escape to the opposite compartment during the conditioned stimulus presentation was scored as an active avoidance response, whereas escape occurring only after shock onset was recorded as […]. […] Each test session consisted of 40 trials with 10‐s inter‐trial intervals, with the number of active avoidance responses systematically recorded.

Data set [9] has as its system mice. The data set can be described thus: Treadmill test (TT). Type of data set: in vivo. Particulars: chronic 10 mg kg−1 per day. The method, then:
This test was designed to quantify locomotor endurance in rodents. The time (300 s) and speed (maximum: 30 rpm) parameters for the treadmill were set using a digital panel and the mice were placed in lanes. Gentle electrical probes (0.3 mA) served as motivational stimuli. Total distance traveled was automatically recorded using rotary encoder integration.

Where [10] appears, read: serum, 10 mg/kg, 21-day chronic administration, individual animals.

Where “and” joins values, the source holds several entries; their conditions need not be identical. Equal entries are not always repeated. Where two headings read alike, the source gives them in different places.

Turning to `[Ba+2].[Cl-].[Cl-]` [BaCl2, reference compound], the “astrocytic resting membrane potential (in words)” value in data set [1] is listed as “marked depolarization”.
Turning to `c1ccc2c(c1)oc1ccc(Nc3ccnc(NCCCN4CCCOCC4)n3)cc12` [JX3250, N^2-(3-(1,4-oxazepan-4-yl)propyl)-N^4-(dibenzo[b,d]furan-2-yl)pyrimidine-2,4-diamine], the IC50 in [2] (Homo sapiens, MDA-MB-468, MDA-MB-468 breast cancer cells) was 12.2 ± 0.87 µM. Moreover, the inhibition at 1 µM was determined as 44 ± 9.96% on Kir4.1 (+50 mV, read-out: Kir4.1 Inhibition ± SD (%) at 1 μM, +50 mV) and 30.4 ± 8.64% at Kir4.1 (-120 mV, read-out: Kir4.1 Inhibition ± SD (%) at 1 μM, -120 mV). For the same molecule, the inhibition at 10 µM at Kir4.1 (+50 mV, read-out: Kir4.1 Inhibition ± SD (%) at 10 μM, +50 mV) amounted to 97.4 ± 1.14%; at Kir4.1 (-120 mV, read-out: Kir4.1 Inhibition ± SD (%) at 10 μM, -120 mV), 88.3 ± 4.59%.
Consider `CN(C)CCCN1c2ccccc2CCc2ccccc21` [imipramine], for which the “OFT total and central distance traveled (in words)” value in the data set with C57BL/6J mice [3] is on record as “no pronounced differences”. Further, the “rotarod falling latency vs vehicle (in words)” value with mice [4] is “notably reduced falling latency”. For the same molecule, the “Y-maze alternation percentage vs vehicle (in words)” value in the data set with mice [5] is “significantly reduced”. Also, in the data set on C57BL/6J mice [6] (imipramine 15 mg kg−1, single administration), the “NSFT antidepressant-like effect (in words)” value was “failed to produce antidepressant‐like effects”. Moreover, in the data set on C57BL/6J mice [6] (repeated administration, vs vehicle), the “food intake in home cage after NSFT (in words)” value was “significant increase in food intake”. Further, in the data set on C57BL/6J mice [6] (seven days, imipramine 15 mg kg−1, JX3212 3/10 mg kg−1), the “NSFT antidepressant-like response after repeated administration (in words)” value was “elicited significant antidepressant‐like responses”. In addition, in the data set on mice [7] (10 mg kg−1 per day, vs vehicle), the “body weight during 21-day chronic administration (in words)” value was “marked increase in body weight”. The Body weight in the data set on mice [7] (10 mg/kg, day 7, individual animals) is 24.5 (2×) and 25.5 (2×) and 25.8 and 25.3 and 24.2 and 25.4 and 24.9 and 26; in the data set with mice [7] (10 mg/kg, day 8, individual animals), 25.5 and 24.5 and 24.8 (2×) and 26.1 and 24.4 and 25.3 (2×) and 26.2 and 25.8; in the data set with mice [7] (10 mg/kg, day 9, individual animals) it was 26.3 and 25.3 (2×) and 26 and 25.4 and 25.8 and 26.4 and 24.8 and 25 and 24.6; with mice [7] (10 mg/kg, day 10, individual animals), 26.1 and 26 (2×) and 25.3 (3×) and 25.5 and 25.2 and 26.3 and 24.9; with mice [7] (10 mg/kg, day 11, individual animals), 26.1 (2×) and 25.7 (2×) and 24.8 and 24.6 and 24.4 and 25.4 and 26 and 24.7; in the data set on mice [7] (10 mg/kg, day 12, individual animals), 26.1 and 26.9 and 25 (2×) and 27.4 and 25.8 (2×) and 26.2 and 24.9 and 26.6. The Body weight with mice [7] (10 mg/kg, day 13, individual animals) was 25.3 (3×) and 26.2 and 26.5 and 27.2 and 26.4 and 27.3 and 25.6 (2×); in the data set on mice [7] (10 mg/kg, day 14, individual animals), 25.3 and 25.8 and 26.8 (2×) and 25.7 and 26.7 and 27.4 and 26.6 and 26.4 and 27.1; with mice [7] (10 mg/kg, day 15, individual animals) it was 27.1 and 25.5 and 25.4 and 25.6 and 26.4 (2×) and 25.8 and 27.3 and 26.3 and 26; in the data set on mice [7] (10 mg/kg, day 16, individual animals), 27.2 (2×) and 26.3 and 26.5 and 25.8 and 26.7 and 25.4 and 26.1 and 26.9 and 25.7. The “serum alanine aminotransferase level (in words)” value in the data set with mice [7] (21-day administration) was “significant increase in alanine aminotransferase levels”. For the same molecule, the “serum aspartate aminotransferase and urea levels (in words)” value in the data set with mice [7] (21-day administration) is “comparable”. Moreover, in the data set with mice [7] (21-day administration), the “serum creatinine level (in words)” value is “marked decreases in creatinine levels”. Further, in the data set with mice [7] (setting [10]), the ALT was 39 and 34 and 31 and 33 and 48 and 37 and 52 and 40. The AST in the data set with mice [7] (setting [10]) is 151 and 169 and 124 and 111 and 168 and 222 and 112 and 198 and 207. Further, the Cr with mice [7] (setting [10]) is 19 and 18 and 20 and 23 and 22. Besides, the “shuttle box active avoidance responses (in words)” value with mice [8] (chronic 10 mg kg−1 per day) is recorded as “no significant differences”. In the data set with mice [8] (chronic 10 mg/kg per day (Fig 5G)), the “SBT active avoidance responses, single mice” value is 27 and 32 and 29 and 20 and 23 and 22. Besides, the “treadmill running distance vs vehicle (in words)” value with mice [9] is listed as “notably reduced”.
“N^4-(1H-indol-5-yl)-N^2-(3-morpholinopropyl)pyrimidine-2,4-diamine [JX3207]”: in data set [2] (MDA-MB-468 breast cancer cells), the half-inhibitory concentration (IC50) stood at 12.3 ± 1.32 µM. In addition, the “Kir4.1 Inhibition ± SD (%) at 1 μM, +50 mV” value on Kir4.1 (1 μM, +50 mV) was 30.53 ± 6.87%. The “Kir4.1 Inhibition ± SD (%) at 1 μM, -120 mV” value at Kir4.1 (1 μM, -120 mV) was 27.52 ± 8.17%. Further, on Kir4.1 (10 μM, +50 mV), the “Kir4.1 Inhibition ± SD (%) at 10 μM, +50 mV” value is 93.00 ± 1.73%. For the same molecule, at Kir4.1 (10 μM, -120 mV), the “Kir4.1 Inhibition ± SD (%) at 10 μM, -120 mV” value came out at 92.47 ± 0.40%.
